ChEMBL document CHEMBL1201862, “PubChem BioAssay data set” (2004)
Several values for one entry are separate records, joined by “and”; a condition that tells them apart may be missing. Equal values may be shown once. Activity calls are given as the source filed them.

What was measured:
[1] = THP-1 cell cytotoxicity, dose response, cytotoxicity control for non-replicating M. tuberculosis project (AID 489025); assay type: functional
[2] = cells; assay type: functional
[3] = system: Jurkat; assay: blockers of NF-kB activation in T cells – Jurkat, luciferase reporter, luminescence, B- and T-cell, dose response (AID 489004); assay type: functional, cell-based; details: Homo sapiens;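 further: NF-kB luciferase reporter Jurkat cells stimulated with PMA plus ionomycin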
[4] = HEK-293T viability loss, compound-treated – cell-based, uHTS hits, cytotoxicity control for B/T-cell NF-kB inhibitor project, dose response (AID 489019); assay type: functional;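 further: IC50 reflects cytotoxicity as loss of cell viability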
[5] = target: T1, Cytochrome P450 1A2 (Homo sapiens, UniProt P05177);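 further: PubChem cytochrome P450 panel assay, CYP1A2 panel member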
T1 sequence (P05177 whole entry): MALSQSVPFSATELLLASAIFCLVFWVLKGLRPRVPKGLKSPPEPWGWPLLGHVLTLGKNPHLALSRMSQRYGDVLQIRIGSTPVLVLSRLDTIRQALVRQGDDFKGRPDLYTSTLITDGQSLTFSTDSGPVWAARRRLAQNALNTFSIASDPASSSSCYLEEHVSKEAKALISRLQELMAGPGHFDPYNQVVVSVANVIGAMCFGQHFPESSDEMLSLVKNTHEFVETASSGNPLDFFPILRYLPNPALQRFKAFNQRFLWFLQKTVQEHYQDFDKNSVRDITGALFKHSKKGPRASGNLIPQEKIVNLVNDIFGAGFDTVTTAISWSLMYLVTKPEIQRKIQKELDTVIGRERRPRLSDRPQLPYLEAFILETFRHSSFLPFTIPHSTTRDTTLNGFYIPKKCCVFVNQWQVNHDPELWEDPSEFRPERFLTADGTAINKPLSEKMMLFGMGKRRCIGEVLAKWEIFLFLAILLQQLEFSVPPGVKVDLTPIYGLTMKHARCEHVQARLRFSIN

[6] = target: T2, Cytochrome P450 2C9 (Homo sapiens, UniProt P11712)
T2 sequence (P11712 whole entry): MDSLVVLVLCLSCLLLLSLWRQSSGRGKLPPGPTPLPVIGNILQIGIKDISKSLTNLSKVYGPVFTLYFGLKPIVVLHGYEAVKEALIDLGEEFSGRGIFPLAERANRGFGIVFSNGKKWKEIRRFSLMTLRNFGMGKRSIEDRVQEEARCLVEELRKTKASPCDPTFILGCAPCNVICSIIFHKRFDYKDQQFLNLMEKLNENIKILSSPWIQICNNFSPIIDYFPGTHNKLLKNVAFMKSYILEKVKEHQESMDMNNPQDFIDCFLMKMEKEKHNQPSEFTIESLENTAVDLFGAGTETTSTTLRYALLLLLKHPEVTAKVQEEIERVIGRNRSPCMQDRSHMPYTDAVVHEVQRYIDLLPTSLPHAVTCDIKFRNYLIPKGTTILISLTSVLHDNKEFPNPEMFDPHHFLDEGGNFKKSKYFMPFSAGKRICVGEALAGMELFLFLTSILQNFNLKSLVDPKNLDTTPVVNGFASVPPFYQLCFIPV

[7] = target: T3, Short transient receptor potential channel 4 (Mus musculus, UniProt Q9QUQ5); assay: block of DAMGO-driven TRPC4 calcium entry – cell-based, HEK293 TRPC4/mu-opioid, Fluo-4 calcium, dose response (AID 434942); assay type: functional;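 further: potency of inhibitors blocking the TRPC4 calcium response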
T3 sequence (Q9QUQ5 whole entry): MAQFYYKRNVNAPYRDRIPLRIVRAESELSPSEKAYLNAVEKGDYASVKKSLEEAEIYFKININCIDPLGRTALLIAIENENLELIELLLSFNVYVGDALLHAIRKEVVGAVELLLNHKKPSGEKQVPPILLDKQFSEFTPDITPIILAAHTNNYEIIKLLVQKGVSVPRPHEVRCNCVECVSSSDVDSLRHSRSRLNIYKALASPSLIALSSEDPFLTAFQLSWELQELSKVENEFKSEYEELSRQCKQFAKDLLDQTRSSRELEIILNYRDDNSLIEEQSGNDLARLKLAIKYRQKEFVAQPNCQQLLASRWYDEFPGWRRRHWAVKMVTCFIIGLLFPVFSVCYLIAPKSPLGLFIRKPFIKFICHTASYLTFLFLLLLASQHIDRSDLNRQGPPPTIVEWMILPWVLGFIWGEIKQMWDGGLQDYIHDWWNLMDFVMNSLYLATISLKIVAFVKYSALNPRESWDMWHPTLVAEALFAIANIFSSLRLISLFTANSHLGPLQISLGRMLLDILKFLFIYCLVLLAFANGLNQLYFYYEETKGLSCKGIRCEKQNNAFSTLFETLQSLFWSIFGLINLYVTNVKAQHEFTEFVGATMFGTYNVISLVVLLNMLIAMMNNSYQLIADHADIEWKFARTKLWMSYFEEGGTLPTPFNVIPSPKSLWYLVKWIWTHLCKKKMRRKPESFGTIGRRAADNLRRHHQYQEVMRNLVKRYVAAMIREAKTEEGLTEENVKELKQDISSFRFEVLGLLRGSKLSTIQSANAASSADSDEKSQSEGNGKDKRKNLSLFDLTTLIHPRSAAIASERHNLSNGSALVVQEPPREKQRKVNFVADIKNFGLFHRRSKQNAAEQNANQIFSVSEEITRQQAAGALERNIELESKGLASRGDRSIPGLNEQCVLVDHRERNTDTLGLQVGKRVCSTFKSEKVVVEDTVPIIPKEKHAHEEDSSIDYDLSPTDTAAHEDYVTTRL

[8] = target: Cytochrome P450 2D6 (Homo sapiens, UniProt P10635);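 further: CYP2D6 member of a cytochrome P450 panel assay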
Sequence of Cytochrome P450 2D6 (P10635 whole entry): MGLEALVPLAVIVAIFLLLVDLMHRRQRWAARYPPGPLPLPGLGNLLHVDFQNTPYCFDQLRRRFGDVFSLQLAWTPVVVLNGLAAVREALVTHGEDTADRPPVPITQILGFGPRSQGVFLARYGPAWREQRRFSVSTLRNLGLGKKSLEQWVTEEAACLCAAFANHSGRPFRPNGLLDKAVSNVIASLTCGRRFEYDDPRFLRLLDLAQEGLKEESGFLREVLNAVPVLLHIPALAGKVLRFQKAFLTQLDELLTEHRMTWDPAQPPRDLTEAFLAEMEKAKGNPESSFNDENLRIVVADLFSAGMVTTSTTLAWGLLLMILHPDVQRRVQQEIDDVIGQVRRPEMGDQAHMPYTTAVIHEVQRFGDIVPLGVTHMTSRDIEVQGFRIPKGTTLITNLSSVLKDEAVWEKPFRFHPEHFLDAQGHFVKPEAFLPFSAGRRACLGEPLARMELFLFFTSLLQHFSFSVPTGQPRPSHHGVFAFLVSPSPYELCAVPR

[9] = target: T4, Cytochrome P450 3A4 (Homo sapiens, UniProt P08684);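 further: CYP3A4 tested as one member of a cytochrome P450 panel screen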
T4 sequence (P08684 whole entry): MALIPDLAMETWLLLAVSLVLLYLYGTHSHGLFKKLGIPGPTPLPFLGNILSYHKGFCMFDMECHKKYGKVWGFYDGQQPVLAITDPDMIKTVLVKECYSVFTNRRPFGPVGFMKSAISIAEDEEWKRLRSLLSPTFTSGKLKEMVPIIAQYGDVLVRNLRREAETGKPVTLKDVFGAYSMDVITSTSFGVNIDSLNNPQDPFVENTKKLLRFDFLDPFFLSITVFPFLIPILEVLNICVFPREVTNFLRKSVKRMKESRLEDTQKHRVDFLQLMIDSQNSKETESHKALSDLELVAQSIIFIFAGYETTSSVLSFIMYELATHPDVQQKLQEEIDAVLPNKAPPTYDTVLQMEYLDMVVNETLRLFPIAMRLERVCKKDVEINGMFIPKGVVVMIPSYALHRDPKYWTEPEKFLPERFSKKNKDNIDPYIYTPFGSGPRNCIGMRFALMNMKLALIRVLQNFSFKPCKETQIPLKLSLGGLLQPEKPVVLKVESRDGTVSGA

[10] = target: T4, Cytochrome P450 3A4; remark: listed apart in the source
[11] = target: T5, Coagulation factor XII (Homo sapiens, UniProt P00748); assay type: functional;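 further: activated factor XIIa alpha cleaving a fluorogenic AMC peptide substrate; inhibitor potency from loss of enzyme activity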
T5 sequence (P00748 whole entry): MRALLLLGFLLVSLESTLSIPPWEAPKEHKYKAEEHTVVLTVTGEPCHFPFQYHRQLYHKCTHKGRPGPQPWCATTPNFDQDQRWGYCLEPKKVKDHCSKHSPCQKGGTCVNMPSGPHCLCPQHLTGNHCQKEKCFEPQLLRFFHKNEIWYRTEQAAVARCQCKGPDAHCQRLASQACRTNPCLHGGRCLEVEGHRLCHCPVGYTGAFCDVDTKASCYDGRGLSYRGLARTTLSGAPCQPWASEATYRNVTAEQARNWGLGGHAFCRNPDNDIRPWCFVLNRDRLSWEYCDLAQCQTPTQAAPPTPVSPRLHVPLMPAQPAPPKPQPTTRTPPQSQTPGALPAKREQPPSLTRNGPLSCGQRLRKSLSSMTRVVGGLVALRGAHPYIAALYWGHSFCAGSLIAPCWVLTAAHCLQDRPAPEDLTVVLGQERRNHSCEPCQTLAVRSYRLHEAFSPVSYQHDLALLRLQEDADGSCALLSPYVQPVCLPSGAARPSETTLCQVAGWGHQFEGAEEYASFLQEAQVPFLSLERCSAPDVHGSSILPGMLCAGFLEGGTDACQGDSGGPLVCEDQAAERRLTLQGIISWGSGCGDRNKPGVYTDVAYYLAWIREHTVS

[12] = target: Glucose-6-phosphate 1-dehydrogenase (Homo sapiens, UniProt P11413); assay: inhibition of Homo sapiens G6PD, dose series – biochemical, fluorescence, selectivity assay for P. falciparum G6PD inhibitor project, dose response (AID 504792); assay type: functional
Sequence of Glucose-6-phosphate 1-dehydrogenase (P11413 whole entry): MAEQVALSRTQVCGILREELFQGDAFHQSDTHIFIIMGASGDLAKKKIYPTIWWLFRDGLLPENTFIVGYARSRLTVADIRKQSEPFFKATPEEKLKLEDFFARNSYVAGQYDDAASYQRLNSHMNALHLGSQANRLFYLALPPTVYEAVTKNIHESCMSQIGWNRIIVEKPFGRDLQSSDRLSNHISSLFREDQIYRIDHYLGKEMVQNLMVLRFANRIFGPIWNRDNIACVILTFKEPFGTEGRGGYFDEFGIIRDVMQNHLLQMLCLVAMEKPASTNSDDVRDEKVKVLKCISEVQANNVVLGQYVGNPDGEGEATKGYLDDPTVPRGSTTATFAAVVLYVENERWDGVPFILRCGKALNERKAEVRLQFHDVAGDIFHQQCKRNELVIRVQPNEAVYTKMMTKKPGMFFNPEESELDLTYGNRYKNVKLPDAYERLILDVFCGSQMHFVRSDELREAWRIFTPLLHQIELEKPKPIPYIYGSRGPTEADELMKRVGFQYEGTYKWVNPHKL

[13] = target: T3, Short transient receptor potential channel 4; assay: calcium entry via TRPC4 opening agents – cell-based, HEK293 TRPC4/mu-opioid, Fluo-4 calcium, dose response (AID 434937); assay type: functional
[14] = Luminescence Cell-Based Dose Retest to Confirm Inhibitors of Cancer Stem Cells. [Related pubchem assays (depositor defined):AID2717, AID2721]; assay type: functional; details: Homo sapiens
[15] = target: T6, Heat shock factor protein 1 (Mus musculus, UniProt P38532); assay: enhancement of HSF1-driven luciferase signal – cell-based, NIH3T3, luminescence, dose retest, confirmation (AID 435004); assay type: functional;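 further: stress induced by proteasome inhibitor MG132 added 30 min after compound; luciferase reporter driven by HSF1 response element in NIH3T3 cells; actives raise luminescence as potentiators of the MG132 stress response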
T6 sequence (P38532 whole entry): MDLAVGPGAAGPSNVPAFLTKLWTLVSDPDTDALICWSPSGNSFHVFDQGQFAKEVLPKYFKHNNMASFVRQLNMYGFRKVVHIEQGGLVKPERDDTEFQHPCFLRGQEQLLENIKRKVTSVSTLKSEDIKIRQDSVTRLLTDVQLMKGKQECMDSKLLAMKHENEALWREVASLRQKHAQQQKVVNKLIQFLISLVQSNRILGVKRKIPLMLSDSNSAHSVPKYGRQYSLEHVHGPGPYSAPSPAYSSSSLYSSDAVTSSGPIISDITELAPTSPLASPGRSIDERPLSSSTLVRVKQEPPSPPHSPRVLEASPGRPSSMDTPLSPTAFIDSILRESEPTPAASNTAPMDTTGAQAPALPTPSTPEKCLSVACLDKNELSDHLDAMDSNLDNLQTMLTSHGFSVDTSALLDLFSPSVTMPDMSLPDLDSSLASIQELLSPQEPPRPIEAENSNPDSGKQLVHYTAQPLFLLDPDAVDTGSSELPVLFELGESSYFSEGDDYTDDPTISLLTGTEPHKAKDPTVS

[16] = system: Vero; assay: cells; assay type: functional; details: Chlorocebus sabaeus
[17] = Luminescence Cell-Based Dose Response to Identify Activators of 5'UTR Stem-Loop Driven Prion Protein mRNA Translation in H4-C Neuroglioblastoma Cells. [Related pubchem assays: 1829 (Project Summary), 1814 (Primary HTS)]; assay type: functional
[18] = Luminescence Cell-Based Dose Confirmation HTS to Identify Activators of 5'UTR Stem-Loop Driven Alpha-Synuclein mRNA Translation in H4 Neuroglioblastoma Cells. [Related pubchem assays: 1829 (Project Summary), 1814 (Primary HTS)]; assay type: functional
[19] = Luminescence Cell-Based Dose Response HTS to Identify Activators of Luciferase Translation or Activity in H4 […] Cells. [Related pubchem assays: 1829 (Project Summary), 1814 (Primary HTS)]; assay type: functional
[20] = system: H4; assay: Luminescence Cell-Based Dose Response HTS to Identify Activators of 5'UTR Stem-Loop Driven Prion Protein mRNA Translation in H4 Neuroglioblastoma Cells. [Related pubchem assays: 1829 (Project Summary), 1814 (Primary HTS)]; assay type: functional; details: Homo sapiens
[21] = Luminescence Cell-Based Dose Response to Identify Activators of Luciferase Translation or Activity in H4-C Neuroglioblastoma Cells. [Related pubchem assays: 1829 (Project Summary), 1814 (Primary HTS)]; assay type: functional
[22] = Luminescence Cell-Based Dose Confirmation to Identify Activators of 5'UTR Stem-Loop Driven Alpha-Synuclein mRNA Translation in H4 Neuroglioblastoma Cells. [Related pubchem assays: 1829 (Project Summary), 1814 (Primary HTS)]; assay type: functional
[23] = target: T2, Cytochrome P450 2C9; remark: listed apart in the source
[24] = target: Cytochrome P450 2C19 (Homo sapiens, UniProt P33261); assay: Cytochrome panel assay with activity outcomes. Panel member name: p450-cyp2c19 Compounds with AC50 equal or less than 10 uM are considered active; assay type: functional; details: read-out: AC50
Sequence of Cytochrome P450 2C19 (P33261 whole entry): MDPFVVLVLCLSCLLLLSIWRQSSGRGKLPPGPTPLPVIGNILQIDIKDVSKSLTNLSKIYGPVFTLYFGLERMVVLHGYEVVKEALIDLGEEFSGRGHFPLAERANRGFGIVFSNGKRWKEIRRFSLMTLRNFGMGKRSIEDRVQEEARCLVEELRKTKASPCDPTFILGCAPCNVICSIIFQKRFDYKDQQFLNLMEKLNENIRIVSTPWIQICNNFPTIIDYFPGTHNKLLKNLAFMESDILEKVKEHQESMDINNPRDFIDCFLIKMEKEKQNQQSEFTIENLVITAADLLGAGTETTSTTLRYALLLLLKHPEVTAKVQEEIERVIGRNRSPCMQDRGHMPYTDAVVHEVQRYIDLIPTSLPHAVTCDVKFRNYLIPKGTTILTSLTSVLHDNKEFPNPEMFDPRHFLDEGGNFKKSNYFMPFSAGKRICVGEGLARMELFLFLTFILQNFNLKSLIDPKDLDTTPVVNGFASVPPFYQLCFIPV

[25] = target: Luciferin 4-monooxygenase (Photinus pyralis, UniProt P08659); assay: inhibition of purified Photinus pyralis luciferase – biochemical, luminescence, dose response (AID 1891)
Sequence of Luciferin 4-monooxygenase (P08659 whole entry): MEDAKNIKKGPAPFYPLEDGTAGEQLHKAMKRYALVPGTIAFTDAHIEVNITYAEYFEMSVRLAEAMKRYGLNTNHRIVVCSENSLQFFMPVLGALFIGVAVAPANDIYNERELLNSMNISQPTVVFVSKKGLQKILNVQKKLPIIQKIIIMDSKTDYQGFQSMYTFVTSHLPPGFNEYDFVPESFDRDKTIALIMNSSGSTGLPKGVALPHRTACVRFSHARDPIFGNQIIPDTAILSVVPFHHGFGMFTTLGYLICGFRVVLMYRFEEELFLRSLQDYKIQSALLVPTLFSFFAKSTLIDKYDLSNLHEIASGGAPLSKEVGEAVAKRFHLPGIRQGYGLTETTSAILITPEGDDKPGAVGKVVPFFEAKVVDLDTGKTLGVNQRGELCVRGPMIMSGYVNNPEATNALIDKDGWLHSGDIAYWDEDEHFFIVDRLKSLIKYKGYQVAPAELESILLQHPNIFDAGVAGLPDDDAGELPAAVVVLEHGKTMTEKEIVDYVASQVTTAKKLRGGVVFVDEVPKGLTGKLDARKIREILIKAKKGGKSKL

[26] = Luminescence Cell-Based Dose Confirmation HTS to Identify Inhibitors of Platelet Dense Granule Release. [Related pubchem assays: 1663 (Primary HTS), 1678 (Summary of Project)]; assay type: functional

## O=C(CCc1ccc(Oc2cc([N+](=O)[O-])cc([N+](=O)[O-])c2)cc1)N1CCCCC1
[1]
  CC50: > 40 µM (active)
[2]
  IC50: 11.4 µM (active)

## Cc1cc([N+](=O)[O-])nn1Cc1ccccc1F
[3]
  IC50: > 80 µM (inactive)
[4]
  IC50: > 80 µM (inactive)
[5]
  AC50: 22.4 µM (inconclusive)
[6]
  AC50: inconclusive

## O=C(C1CCN(CC2CC=CCC2)CC1)N(CCc1ccccc1)Cc1ccccc1 (stereo not drawn)
[7]
  EC50: 2.66 µM (active)

## N=C(N)NC(=N)Nc1cccc(Cl)c1
[8]
  AC50: 25.1 µM (inconclusive) and 39.8 µM (inconclusive)
[9]
  AC50: 79.4 µM (inconclusive)
[10]
  AC50: inconclusive

## CNC(=O)c1ccc(N(Cc2ccccc2)S(C)(=O)=O)cc1
[11]
  IC50: > 50 µM (inactive)

## O=C1C(c2cc(O)c3ccccc3n2)=C(O)c2ccccc21
[12]
  IC50: 53.4 µM (inactive)

## COCCn1c(SCC(=O)c2ccccc2)nc2ccccc2c1=O
[7]
  EC50: 0.376 µM (active)

## COc1ccc(CCN(C)CCN2C(=O)c3ccccc3C2=O)cc1OC
[7]
  EC50: 1.88 µM (active)
[13]
  EC50: 1.06 µM (active)

## O=C(c1cnccn1)N1CCC2(CC1)CCN(c1ccccn1)CC2
[10]
  AC50: inconclusive

## CC(=O)O[C@H]1[C@H]2O[C@]23[C@@H]2CC[C@]4(O)C[C@@H](O)CC[C@]4(C)[C@H]2CC[C@]3(C)[C@H]1c1ccc(=O)oc1 [CINOBUFOTALIN]
[14]
  AC50: < 0.16 µM (active)
[3]
  IC50: 3.19 µM (active)
[4]
  IC50: > 80 µM (inactive)

## CN(NC1OC(=O)c2ccccc21)c1ncc(Cl)cc1C(F)(F)F (stereo not drawn)
[11]
  IC50: > 50 µM (inactive)
[15]
  EC50: > 260 µM (inactive)

## COc1ccc(CCc2cc(OC)c(OC)c(OC)c2)cc1
[16]
  CC50: 1.66 µM (active)

## COc1cc2c(cc1OC)[C@H](c1ccccc1)CN(C)CC2
[8]
  AC50: 31.6 µM (inconclusive)
[10]
  AC50: inconclusive

## c1csc(-c2nc(N3CCCCC3)no2)c1
[17]
  EC50: 0.38 µM (active)
[18]
  EC50: < 0.1 µM (active)
[19]
  EC50: < 0.1 µM (active)
[20]
  EC50: 1.22 µM (active)
[21]
  EC50: 0.36 µM (active)
[22]
  EC50: 0.29 µM (active)

## COC(=O)Cc1c(C)nc2ncnn2c1O
[11]
  IC50: > 50 µM (inactive)

## COc1ccc(OC)c(C2C3=C(O)OCC3=Nc3cc4c(cc32)OCO4)c1 (stereo not drawn)
[3]
  IC50: > 80 µM (inactive)
[4]
  IC50: > 80 µM (inactive)
[8]
  AC50: 22.4 µM (inconclusive)
[5]
  AC50: 10 µM (inconclusive)
[23]
  AC50: 7.94 µM (inconclusive)

## CCOC(=O)c1ccc(N2C(=O)CC(Nc3ccc(CCO)cc3)C2=O)cc1 (stereo not drawn)
[24]
  AC50: 8.91 µM (inconclusive)
[23]
  AC50: 6.31 µM (inconclusive)
[10]
  AC50: inconclusive

## OC1(c2ccc(Cl)cc2)CCN(Cc2c[nH]c3ccccc23)CC1
[10]
  AC50: inconclusive
[6]
  AC50: inconclusive

## Cc1cc(=O)n2c(n1)SCOC2
[11]
  IC50: > 50 µM (inactive)

## COc1cc(NCCCn2cnc3c(OCc4ccccc4)ncnc32)cc(OC)c1OC
[12]
  IC50: > 80 µM (inactive)

## CCN(CC)CCCN(C(=O)c1ccccc1F)c1nc(-c2ccc(OC)cc2)cs1
[16]
  CC50: 17.6 µM (active)

## Cc1ccc(C(=O)ONc2ccc(N=O)cc2)cc1
[25]
  EC50: < 0.088 µM (active)
[26]
  EC50: 2.69 µM (active)
[11]
  IC50: 29.8 µM (active)

## CCCCNc1nc2ccccc2[nH]1
[7]
  EC50: 2.99 µM (active)
